Test results as given in patent US20190209645A1, “POTENTIATION OF ANTIBIOTIC ACTIVITY BY A NOVEL CATIONIC PEPTIDE, SPR741” (priority 2016, published 2019).
Bridge positions count the residues as written; N and C are the ends. Square brackets hold non-standard residues; d marks the D form. Peptide text beside a SMILES is read from it. Dab = NCC[C@H](N)C(=O)O

Legend:
[1] = Minimum bactericidal concentration of combinations in the presence of 5% surfactant (Survanta); assay type: cell-based; conditions: in combination with SPR741; with or without 5% Survanta
Experimental: (§1) Efficacy was assessed in checkerboard assays. The minimum inhibitory concentration (MIC) of SPR741, antibiotics, and combinations thereof was defined as the lowest concentration that inhibited growth of Ec ATCC 25922, Ab NCTC 12156 and Kp ATCC 43816. Ec BW25113, ΔtolC and ΔacrA were used to assess the contribution of the multi drug efflux pump AcrAB-TolC to susceptibility to the combinations. Interactions were assessed by calculating fractional inhibitory concentration indices (FICI) for each combination in which the MIC differed from compounds in isolation. Interactions were defined as: FICI>4, antagonism; 0.5-4, no interaction; <0.5, synergy. The minimum bactericidal concentration of combinations in the presence of 5% surfactant (Survanta) was also determined.

[2] = system: Escherichia coli (Ec) MDR and clinical isolates; assay: Susceptibility testing (MIC, CLSI M7-A10) of antibiotics with SPR741; assay type: cell-based; conditions: for order of potentiation of the antibiotics by SPR741: 25 Ec isolates, Mueller-Hinton broth-II with 0, 2 or 8 μg/mL SPR741
Experimental: (§2) Assays were performed against 25 Escherichia coli (Ec), 25 Klebsiella pneumoniae (Kp), and 17 Acinetobacter baumannii (Ab) MDR and clinical isolates, in Mueller-Hinton broth-II (cation adjusted) containing 0, 2 or 8 μg/mL SPR741. The minimum inhibitory concentration (MIC) was defined as the lowest concentration of antibiotic required to inhibit visible bacterial growth. MIC values were determined for each antibiotic/SPR741 combination and maximum reductions in MIC of the antibiotic in the combination were determined.

[3] = system: Klebsiella pneumoniae (Kp) MDR and clinical isolates; assay: as above; assay type: cell-based; conditions: for order of potentiation of the antibiotics by SPR741: 25 Kp isolates, Mueller-Hinton broth-II with 0, 2 or 8 μg/mL SPR741
Experimental: as §2

[4] = system: Acinetobacter baumannii (Ab) MDR and clinical isolates; assay: as above; assay type: cell-based; conditions: for order of potentiation of the antibiotics by SPR741: 17 Ab isolates, Mueller-Hinton broth-II with 0, 2 or 8 μg/mL SPR741
Experimental: as §2

Gram negative bacteria = conditions: previously shown; cited from earlier work
[5] = system: Ec BW25113, ΔtolC and ΔacrA; assay: Contribution of efflux pump AcrAB-TolC to susceptibility to the combinations; assay type: cell-based, Escherichia coli
Experimental: as §1

[6] = Kp isolates, in combination with SPR741

Compound | order of potentiation of the antibiotics by SPR741 [2] | order of potentiation of the antibiotics by SPR741 [3] | order of potentiation of the antibiotics by SPR741 [4] | further results
CC[C@H]1OC(=O)[C@H](C)[C@@H](O[C@H]2C[C@@](C)(OC)[C@@H](O)[C@H](C)O2)[C@H](C)[C@@H](O[C@@H]2O[C@H](C)C[C@H](N(C)C)[C@H]2O)[C@](C)(OC)C[C@@H](C)C(=O)[C@H](C)[C@@H](O)[C@]1(C)O [CLR, clarithromycin] | RIF>MUP=FA>AZ=RET>AZT>MEM=CLR | RET>RIF=AZ=CLR>MUP>MEM=FA>AZT | FA>RIF>CLR>RET>MEM>AZ>AZT>MUP | bactericidal activity (minimum bactericidal concentration) of the combination [1]: bactericidal at concentrations similar to the MIC irrespective of the presence of Survanta
C[C@@H](O)[C@H]1C(=O)N2C(C(=O)O)=C(S[C@@H]3CN[C@H](C(=O)N(C)C)C3)[C@H](C)[C@H]12 [MEM, meropenem] | RIF>MUP=FA>AZ=RET>AZT>MEM=CLR | RET>RIF=AZ=CLR>MUP>MEM=FA>AZT | FA>RIF>CLR>RET>MEM>AZ>AZT>MUP | –
C=C[C@]1(C)C[C@@H](OC(=O)CS[C@@H]2C[C@H]3CC[C@@H](C2)N3C)[C@]2(C)[C@H](C)CC[C@]3(CCC(=O)[C@H]32)[C@@H](C)[C@@H]1O [RET, retapamulin] | RIF>MUP=FA>AZ=RET>AZT>MEM=CLR | RET>RIF=AZ=CLR>MUP>MEM=FA>AZT | FA>RIF>CLR>RET>MEM>AZ>AZT>MUP | MIC of antibiotic in the combination [3, 6]: 4 µg/mL; MIC reduction [3, 6]: 32 fold; MIC of antibiotic alone ([3]; Kp isolates, without SPR741): 128 µg/mL
C[C@H]1[C@H](NC(=O)/C(=N\OC(C)(C)C(=O)O)c2csc(N)n2)C(=O)N1S(=O)(=O)O [AZT, aztreonam] | RIF>MUP=FA>AZ=RET>AZT>MEM=CLR | – | FA>RIF>CLR>RET>MEM>AZ>AZT>MUP | –
CC[C@H]1OC(=O)[C@H](C)[C@@H](O[C@H]2C[C@@](C)(OC)[C@@H](O)[C@H](C)O2)[C@H](C)[C@@H](O[C@@H]2O[C@H](C)C[C@H](N(C)C)[C@H]2O)[C@](C)(O)C[C@@H](C)CN(C)[C@H](C)[C@@H](O)[C@]1(C)O [AZ, azithromycin] | RIF>MUP=FA>AZ=RET>AZT>MEM=CLR | RET>RIF=AZ=CLR>MUP>MEM=FA>AZT | FA>RIF>CLR>RET>MEM>AZ>AZT>MUP | –
CC(=O)N[C@H](C(=O)N[C@H](CO)C(=O)N[C@H]1CCNC(=O)[C@H]([C@@H](C)O)NC(=O)[C@H](CCN)NC(=O)[C@H](CCN)NC(=O)[C@H](CC(C)C)NC(=O)[C@@H](Cc2ccccc2)NC(=O)[C@H](CCN)NC1=O)[C@@H](C)O [SPR741, Acetyl-Thr-dSer-cy[Dab-Dab-dPhe-Leu-Dab-Dab-Thr]] (Ac-T[dS][Dab][Dab][dF]L[Dab][Dab]T; lactam 3-C) | – | – | – | sensitisation of bacteria to antibiotics (Gram negative bacteria): increase the sensitivity of certain bacteria to Mupirocin, Azithromycin, Fusidic Acid, and Vancomycin; potentiation of antibiotics that are AcrAB-TolC substrates [5]: able to potentiate antibiotics that are substrates of AcrAB-TolC; effect of SPR741 on MIC of antibiotics ([2]; MDR isolates of Ec): effectively reduced the MIC of currently utilized antibiotics; effect of SPR741 on MIC of antibiotics ([3]; MDR isolates of Kp): effectively reduced the MIC of currently utilized antibiotics; effect of SPR741 on MIC of antibiotics ([4]; MDR isolates of Ab): effectively reduced the MIC of currently utilized antibiotics
CC(=O)O[C@H]1C[C@@]2(C)[C@@H](C[C@@H](O)[C@H]3[C@@]4(C)CC[C@@H](O)[C@@H](C)[C@@H]4CC[C@@]32C)/C1=C(\CCC=C(C)C)C(=O)O [FA, fusidic acid] | RIF>MUP=FA>AZ=RET>AZT>MEM=CLR | RET>RIF=AZ=CLR>MUP>MEM=FA>AZT | FA>RIF>CLR>RET>MEM>AZ>AZT>MUP | –
C/C(=C\C(=O)OCCCCCCCCC(=O)O)C[C@@H]1OC[C@H](C[C@@H]2O[C@H]2[C@@H](C)[C@H](C)O)[C@@H](O)[C@H]1O [MUP, mupirocin] | RIF>MUP=FA>AZ=RET>AZT>MEM=CLR | RET>RIF=AZ=CLR>MUP>MEM=FA>AZT | FA>RIF>CLR>RET>MEM>AZ>AZT>MUP | –
CO[C@H]1/C=C/O[C@@]2(C)Oc3c(C)c(O)c4c(O)c(c(/C=N/N5CCN(C)CC5)c(O)c4c3C2=O)NC(=O)/C(C)=C\C=C\[C@H](C)[C@H](O)[C@@H](C)[C@@H](O)[C@@H](C)[C@H](OC(C)=O)[C@@H]1C [RIF, rifampicin] | – | – | – | maximum MIC reduction ([2]; Ec isolates, in combination with SPR741): > 2000 fold; MIC of antibiotic alone ([2]; Ec isolates, without SPR741): > 128 µg/mL
